In ChEMBL document CHEMBL3596180, “Evaluation of histone deacetylase inhibitors (HDACi) as therapeutic leads for human African trypanosomiasis (HAT)” (Bioorg Med Chem, 2015):
pEC50, pKi: −log10 of the molar value. Values belong to the compound of their own block, whether it stands above or below them. Activity calls are given as the source filed them. No cut-off for these calls is given here.

How the values were obtained:
[1] = AUC in po dosed human measured under phase 1 trial; assay type: ADME, organism-based; settings: in vivo
[2] = molecular target: T1, Polyamine deacetylase HDAC10 (Homo sapiens, UniProt Q969S8); assay: Inhibition of human HDAC10
T1 sequence (Q969S8 whole entry): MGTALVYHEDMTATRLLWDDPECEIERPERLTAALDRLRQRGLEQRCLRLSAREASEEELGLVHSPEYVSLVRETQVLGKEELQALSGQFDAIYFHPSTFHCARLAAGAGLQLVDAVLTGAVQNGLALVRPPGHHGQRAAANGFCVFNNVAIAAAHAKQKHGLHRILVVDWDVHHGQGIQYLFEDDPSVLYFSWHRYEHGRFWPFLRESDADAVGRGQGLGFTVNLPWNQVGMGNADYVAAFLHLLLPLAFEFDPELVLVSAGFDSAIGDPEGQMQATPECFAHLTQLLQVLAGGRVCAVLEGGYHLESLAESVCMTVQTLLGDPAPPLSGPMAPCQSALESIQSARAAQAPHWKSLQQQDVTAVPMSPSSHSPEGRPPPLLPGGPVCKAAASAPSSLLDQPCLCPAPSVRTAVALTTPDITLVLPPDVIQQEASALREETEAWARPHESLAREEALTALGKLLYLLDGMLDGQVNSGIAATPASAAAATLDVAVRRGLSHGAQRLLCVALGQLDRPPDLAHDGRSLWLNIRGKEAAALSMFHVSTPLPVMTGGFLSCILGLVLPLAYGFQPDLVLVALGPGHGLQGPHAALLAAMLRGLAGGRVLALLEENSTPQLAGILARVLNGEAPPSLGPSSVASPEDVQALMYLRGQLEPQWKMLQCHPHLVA

[3] = Tmax in po dosed human measured under phase 1 trial; assay type: ADME, organism-based; settings: in vivo
[4] = Cmax in po dosed human measured under phase 1 trial; assay type: ADME, organism-based; parameters: route oral; settings: in vivo
[5] = tested on: Trypanosoma brucei brucei; assay: Antitrypanosomal activity against Trypanosoma brucei brucei 427 assessed as inhibition of parasite proliferation measured as ATP levels after 48 hrs by luciferase-based assay; assay type: functional, organism-based; settings: Trypanosoma brucei, 427, 48 h
Histone deacetylase 9 = Histone deacetylase 9 (Homo sapiens, UniProt Q9UKV0); assay: Inhibition of human HDAC9
Histone deacetylase 5 = Histone deacetylase 5 (Homo sapiens, UniProt Q9UQL6); assay: Inhibition of human HDAC5
Homo sapiens = species on record: Homo sapiens; assay: Half-life in human; assay type: ADME, organism-based; settings: in vivo
[6] = Cmax in human; assay type: ADME, organism-based; settings: in vivo
[7] = tested on: Trypanosoma brucei brucei; assay: Trypanocidal activity against Trypanosoma brucei brucei assessed as killing of parasite densities of 10^4 to 10^6 cells/ml at 2.2 uM by clonal dilution method; assay type: functional, organism-based
Histone deacetylase 11 = molecular target: T2, Histone deacetylase 11 (Homo sapiens, UniProt Q96DB2); assay: Inhibition of human HDAC11
T2 sequence (Q96DB2 whole entry): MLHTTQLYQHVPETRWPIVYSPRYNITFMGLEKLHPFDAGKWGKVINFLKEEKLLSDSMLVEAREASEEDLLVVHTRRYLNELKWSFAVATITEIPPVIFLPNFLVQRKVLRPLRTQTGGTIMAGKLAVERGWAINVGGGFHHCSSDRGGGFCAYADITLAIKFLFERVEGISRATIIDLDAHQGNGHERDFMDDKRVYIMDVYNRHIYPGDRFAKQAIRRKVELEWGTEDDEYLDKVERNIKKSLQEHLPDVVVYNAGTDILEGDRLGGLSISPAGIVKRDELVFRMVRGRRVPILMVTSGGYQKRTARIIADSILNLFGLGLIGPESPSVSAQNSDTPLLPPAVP

Histone deacetylase 1 = Histone deacetylase 1 (Homo sapiens, UniProt Q13547); assay: Inhibition of human HDAC1
Histone deacetylase 2 = Histone deacetylase 2 (Homo sapiens, UniProt Q92769); assay: Inhibition of human HDAC2
Histone deacetylase 7 = molecular target: T3, Histone deacetylase 7 (Homo sapiens, UniProt Q8WUI4); assay: Inhibition of human HDAC7
T3 sequence (Q8WUI4 whole entry): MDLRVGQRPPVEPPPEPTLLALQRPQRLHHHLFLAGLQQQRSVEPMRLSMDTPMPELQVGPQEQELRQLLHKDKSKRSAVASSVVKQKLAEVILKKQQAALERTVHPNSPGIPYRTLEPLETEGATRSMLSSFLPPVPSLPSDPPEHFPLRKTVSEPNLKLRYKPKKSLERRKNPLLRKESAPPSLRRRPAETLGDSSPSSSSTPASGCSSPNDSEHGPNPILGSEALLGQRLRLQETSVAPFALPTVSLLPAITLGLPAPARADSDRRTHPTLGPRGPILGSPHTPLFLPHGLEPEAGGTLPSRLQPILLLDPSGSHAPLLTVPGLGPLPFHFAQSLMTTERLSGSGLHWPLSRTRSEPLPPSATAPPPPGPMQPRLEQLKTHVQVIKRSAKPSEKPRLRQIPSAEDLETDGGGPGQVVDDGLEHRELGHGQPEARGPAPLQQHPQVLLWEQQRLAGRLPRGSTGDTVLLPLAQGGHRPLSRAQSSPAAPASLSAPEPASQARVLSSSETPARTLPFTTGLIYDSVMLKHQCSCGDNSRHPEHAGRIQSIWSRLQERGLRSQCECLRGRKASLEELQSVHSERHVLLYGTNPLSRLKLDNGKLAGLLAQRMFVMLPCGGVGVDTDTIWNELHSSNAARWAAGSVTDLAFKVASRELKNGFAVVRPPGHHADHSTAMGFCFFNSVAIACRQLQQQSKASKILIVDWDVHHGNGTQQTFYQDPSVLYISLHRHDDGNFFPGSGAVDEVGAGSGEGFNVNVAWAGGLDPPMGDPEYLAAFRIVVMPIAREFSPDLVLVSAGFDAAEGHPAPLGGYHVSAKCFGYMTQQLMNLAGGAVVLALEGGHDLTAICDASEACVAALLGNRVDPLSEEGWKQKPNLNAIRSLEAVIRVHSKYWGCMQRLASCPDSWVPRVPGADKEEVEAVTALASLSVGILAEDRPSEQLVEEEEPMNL

[8] = Tmax in iv dosed human measured under phase 1 trial; assay type: ADME, organism-based; settings: in vivo
[9] = Half-life in po dosed human measured under phase 2 trial; assay type: ADME, organism-based; settings: in vivo
[10] = Half-life in po dosed human measured under phase 1 trial; assay type: ADME, organism-based; settings: in vivo
[11] = AUC in iv dosed human measured under phase 1 trial; assay type: ADME, organism-based; settings: in vivo
[12] = Cmax in po dosed human measured under phase 2 trial; assay type: ADME, organism-based; parameters: route oral; settings: in vivo
[13] = AUC in po dosed human measured under phase 2 trial; assay type: ADME, organism-based; settings: in vivo
[14] = Cmax in iv dosed human measured under phase 1 trial; assay type: ADME, organism-based; parameters: route intravenous; settings: in vivo
[15] = Tmax in po dosed human measured under phase 2 trial; assay type: ADME, organism-based; settings: in vivo
[16] = Half-life in iv dosed human measured under phase 1 trial; assay type: ADME, organism-based; settings: in vivo

Histone deacetylase 5, sequence (Q9UQL6 whole entry): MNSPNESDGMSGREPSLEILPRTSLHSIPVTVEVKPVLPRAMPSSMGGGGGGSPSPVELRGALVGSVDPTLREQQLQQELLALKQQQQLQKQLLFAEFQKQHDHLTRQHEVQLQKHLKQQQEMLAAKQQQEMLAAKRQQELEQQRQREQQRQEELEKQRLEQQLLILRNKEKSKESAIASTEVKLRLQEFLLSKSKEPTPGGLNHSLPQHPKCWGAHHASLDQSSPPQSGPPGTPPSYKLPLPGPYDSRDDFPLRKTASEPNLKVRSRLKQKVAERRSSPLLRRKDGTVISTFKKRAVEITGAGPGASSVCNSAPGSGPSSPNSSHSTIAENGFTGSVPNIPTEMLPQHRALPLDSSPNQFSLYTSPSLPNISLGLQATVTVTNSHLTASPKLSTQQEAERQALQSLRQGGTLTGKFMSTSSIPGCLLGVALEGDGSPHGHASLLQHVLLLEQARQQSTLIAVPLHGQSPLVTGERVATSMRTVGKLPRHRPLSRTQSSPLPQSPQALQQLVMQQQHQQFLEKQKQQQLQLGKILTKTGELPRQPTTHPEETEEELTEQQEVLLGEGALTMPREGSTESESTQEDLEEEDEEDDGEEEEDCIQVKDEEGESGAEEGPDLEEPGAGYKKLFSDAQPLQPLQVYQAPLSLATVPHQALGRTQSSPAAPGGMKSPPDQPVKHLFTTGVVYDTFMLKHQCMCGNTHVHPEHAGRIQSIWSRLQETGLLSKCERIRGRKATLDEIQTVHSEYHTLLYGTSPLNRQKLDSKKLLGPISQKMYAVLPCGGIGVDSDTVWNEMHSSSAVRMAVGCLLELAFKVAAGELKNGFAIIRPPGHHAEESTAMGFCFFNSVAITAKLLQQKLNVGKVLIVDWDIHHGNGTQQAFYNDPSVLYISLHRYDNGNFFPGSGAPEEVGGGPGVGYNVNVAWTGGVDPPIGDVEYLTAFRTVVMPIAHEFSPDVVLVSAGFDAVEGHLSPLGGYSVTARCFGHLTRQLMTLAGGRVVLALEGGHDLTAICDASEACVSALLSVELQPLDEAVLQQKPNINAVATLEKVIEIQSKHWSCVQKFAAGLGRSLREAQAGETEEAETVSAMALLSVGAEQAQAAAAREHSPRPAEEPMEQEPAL
Histone deacetylase 2, sequence (Q92769 whole entry): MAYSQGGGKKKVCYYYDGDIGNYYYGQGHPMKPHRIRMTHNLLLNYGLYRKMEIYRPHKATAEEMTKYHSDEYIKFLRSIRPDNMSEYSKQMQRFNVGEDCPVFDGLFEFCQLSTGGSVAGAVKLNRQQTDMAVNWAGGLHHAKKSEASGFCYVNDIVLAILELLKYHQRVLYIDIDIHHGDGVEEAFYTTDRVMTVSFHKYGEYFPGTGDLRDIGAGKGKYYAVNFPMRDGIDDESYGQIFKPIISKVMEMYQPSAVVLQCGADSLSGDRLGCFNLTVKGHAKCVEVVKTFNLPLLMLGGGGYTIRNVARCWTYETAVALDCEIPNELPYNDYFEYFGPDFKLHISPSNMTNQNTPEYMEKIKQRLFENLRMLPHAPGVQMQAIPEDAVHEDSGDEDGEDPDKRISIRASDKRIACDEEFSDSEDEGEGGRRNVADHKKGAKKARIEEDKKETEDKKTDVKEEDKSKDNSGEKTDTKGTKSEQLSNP
Histone deacetylase 9, sequence (Q9UKV0 whole entry): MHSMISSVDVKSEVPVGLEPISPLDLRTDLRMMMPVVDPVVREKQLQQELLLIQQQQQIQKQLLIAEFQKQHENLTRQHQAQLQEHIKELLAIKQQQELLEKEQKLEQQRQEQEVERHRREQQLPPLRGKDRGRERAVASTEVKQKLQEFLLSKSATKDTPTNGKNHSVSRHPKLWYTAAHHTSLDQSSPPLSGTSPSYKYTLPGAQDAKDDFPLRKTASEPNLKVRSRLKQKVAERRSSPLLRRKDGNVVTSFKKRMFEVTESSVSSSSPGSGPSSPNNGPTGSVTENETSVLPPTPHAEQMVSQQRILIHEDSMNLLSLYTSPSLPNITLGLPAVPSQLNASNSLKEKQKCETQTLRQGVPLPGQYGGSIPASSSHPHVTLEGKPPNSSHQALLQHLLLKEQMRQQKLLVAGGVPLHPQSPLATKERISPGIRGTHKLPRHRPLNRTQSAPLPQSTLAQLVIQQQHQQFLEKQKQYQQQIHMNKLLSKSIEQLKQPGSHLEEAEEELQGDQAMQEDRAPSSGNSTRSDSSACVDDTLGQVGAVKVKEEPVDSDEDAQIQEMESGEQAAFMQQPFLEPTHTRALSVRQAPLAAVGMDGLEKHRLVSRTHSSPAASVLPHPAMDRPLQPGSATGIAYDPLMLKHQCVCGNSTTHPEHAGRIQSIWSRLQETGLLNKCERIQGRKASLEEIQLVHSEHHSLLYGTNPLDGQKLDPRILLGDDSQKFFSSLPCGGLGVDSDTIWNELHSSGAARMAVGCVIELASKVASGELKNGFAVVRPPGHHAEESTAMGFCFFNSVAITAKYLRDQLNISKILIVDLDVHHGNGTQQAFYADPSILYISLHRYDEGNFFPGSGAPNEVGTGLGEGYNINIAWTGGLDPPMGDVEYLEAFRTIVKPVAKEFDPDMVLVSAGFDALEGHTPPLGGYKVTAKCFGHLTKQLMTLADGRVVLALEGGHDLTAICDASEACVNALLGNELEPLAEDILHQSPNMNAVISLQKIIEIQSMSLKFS
Histone deacetylase 1, sequence (Q13547 whole entry): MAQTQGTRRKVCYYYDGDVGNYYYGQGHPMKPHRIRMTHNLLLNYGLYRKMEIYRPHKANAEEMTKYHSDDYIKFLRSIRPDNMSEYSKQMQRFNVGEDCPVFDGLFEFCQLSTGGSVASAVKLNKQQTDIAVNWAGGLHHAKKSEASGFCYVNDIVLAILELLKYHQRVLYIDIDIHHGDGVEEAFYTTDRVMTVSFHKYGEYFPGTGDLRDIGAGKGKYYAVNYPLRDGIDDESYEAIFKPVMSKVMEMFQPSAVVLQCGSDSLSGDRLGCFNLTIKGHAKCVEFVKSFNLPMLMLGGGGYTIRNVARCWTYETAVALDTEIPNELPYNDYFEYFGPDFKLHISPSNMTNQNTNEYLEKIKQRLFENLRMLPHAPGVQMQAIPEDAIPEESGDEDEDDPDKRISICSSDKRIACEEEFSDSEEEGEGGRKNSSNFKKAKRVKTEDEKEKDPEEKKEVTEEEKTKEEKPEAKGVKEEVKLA

Structure (SMILES): N=C(N)c1ccc(OCCCCCOc2ccc(C(=N)N)cc2)cc1 [PENTAMIDINE]
- t1/2 (Homo sapiens): 265 h
- Cmax [6]: 900 nM
- Activity [7]: Active

Structure (SMILES): CCCCc1nc2cc(/C=C/C(=O)NO)ccc2n1CCN(CC)CC [PRACINOSTAT]
- AUC [1]: 1030 ng·h/mL
- Cmax [4]: 497 nM
- pKi (Histone deacetylase 11): 7.37
- pEC50 [5]: 5.02

Structure (SMILES): O=C(Nc1ccccc1-c1cn2c(CN3CCNCC3)csc2n1)c1cnc2ccccc2n1
- pEC50 [5]: 6.05

Structure (SMILES): CC(/C=C/C(=O)NO)=C\[C@@H](C)C(=O)c1ccc(N(C)C)cc1 [TRICHOSTATIN]
- pEC50 [5]: 5.30

Structure (SMILES): CN1CCc2c(c3ccccc3n2Cc2ccc(C(=O)NO)cc2)C1 [TUBASTATIN A]
- pEC50 [5]: 5.56

Structure (SMILES): O=C(CCCCCCC(=O)Nc1ccc([C@H]2O[C@@H](CSc3nc(-c4ccccc4)c(-c4ccccc4)o3)C[C@@H](c3ccc(CO)cc3)O2)cc1)NO [TUBACIN]
- pKi (Histone deacetylase 1): 6.49
- pEC50 [5]: 5.47
- pKi (Histone deacetylase 2): 5.93
- pKi (Histone deacetylase 5): 5.72
- pKi (Histone deacetylase 7): 5.27

Now from value to compound:

- AUC [1]: 9.77 ng·h/mL
- pKi [2]: 10.30
- Tmax [3]: 4 h
- Cmax [4]: 3 nM
- pEC50 [5]: 7.54
- pKi (Histone deacetylase 9): 8.42
- pKi (Histone deacetylase 5): 8.68
Structure (SMILES): Cn1cc(CNCC2CCN(c3ncc(C(=O)NO)cn3)CC2)c2ccccc21 [QUISINOSTAT]

- AUC [1]: 91.3 ng·h/mL
- Tmax [8]: 0.5 h
- half-life [9]: 15 h
- Tmax [3]: 1.5 h
- half-life [10]: 12.8 h
- Cmax [4]: 31 nM
- AUC [11]: 605 ng·h/mL
- Cmax [12]: 191 nM
- pEC50 [5]: 5.80
- EC90 [5]: 4860 nM
- AUC [13]: 356 ng·h/mL
- Cmax [14]: 1410 nM
- Tmax [15]: 1 h
- half-life [16]: 16 h
Structure (SMILES): Cc1[nH]c2ccccc2c1CCNCc1ccc(/C=C/C(=O)NO)cc1 [PANOBINOSTAT]
